Columns and labels:
Assay in all cases: Plate-bound mCD1d fusion protein hybridoma stimulation assay (IL-2 ELISA)
Format in all cases: cell-based, mouse
24.8.A hybridoma = conditions: for IL-2 secretion: 24.8 A NKT hybridoma, plate-bound mCD1d-IgGFc2a fusion protein preincubated with lipid antigen
From the text: (§1) The CD1d-restricted T cell clones 24.7, 24.8, 24.9 (NKT cell) and 14S.6, 14S.7, 14S.10, and 14S.15 (diverse TCRs) were all derived from spleen of wild type C57BL/6 mice, as described previously (Behar, S. M. et al., J. Immunol., 162:161-7 (1999)). To generate T cell hybridomas, the activated T cells were fused to the aminopterin-sensitive BW5147 αβTCR^− thymoma cell line using PEG1500, and hybrids were selected in HAT medium (Life Technologies, Gaithersburg, Md.). Resulting TT hybridomas were tested for recognition of RMA-S cells transfected with mCD1D1 compared to untransfected RMA-S cells, as described below. […] The hybridomas are distinguished from the original T cell clones by the addition of a letter to their names. The KT/7, KT/12, KT/22, and KT/23 and Vβ/9 NKT cell hybridomas were derived from NK1.1^+ T cells enriched from spleen of C57BL/6 mice by depletion of CD8+ T cells, naive T cells, and B cells by mAbs (anti-B220, CD8, and CD62L, or anti-CD8α, CD8β, and Me114) bound to magnetic microbeads, or to plastic. The purified cells were stimulated either by the anti-CD3 KT3 mAb (KT/7, KT/12, KT/22, KT/23), or by an anti-Vβ8.2 mAb (Vβ/9), and addition of IL-2 or IL-2 and IL-7. After 4-5 days of culture the cells were fused with BW5147 thymoma cells. The VII68, VIII24, XVI9, and XV104 diverse TCR hybridomas were generated from CD4^+ T cells from class 110 mice, as described previously (Cardell, S. et al., J. Exp. Med., 182:993-1004 (1995)). The DN32D3 hybridoma was derived as described (Lantz, O., and Bendelac, A., J. Exp. Med., 180:1097-106 (1994).
(§2) To test for recognition of the mCD1d fusion protein and purified or synthetic antigens, 96 well protein A coated plates (Pierce Chemical Company) were incubated with 400-600 ng/well of the fusion protein or a negative control IgG2a antibody, RPC5.4 or UPC10, in PBS, at pH 7.2. Lipid antigens were diluted into PBS and added where specified at the indicated molar ratio of antigen to fusion protein, (when not specified the ratio was 40:1). Protein A plates containing the fusion protein and antigen were incubated 24-48 hr at 37° C., then washed three times with 200 μl/well sterile PBS, pH 7.2, and two times with 200 μl/well sterile culture medium (containing RPMI supplemented with L-glutamine and penicillin/streptomycin, Life Technologies, Gaithersburg, Md., and 10% bovine calf serum, Hyclone Laboratories, Logan, Utah). For assays in which the PI was phospholipase treated, it was first diluted into 0.01M Tris, 0.15M NaCl, pH 7.5, containing 0.25 U PI-specific phospholipase C or 0.5 U phospholipase D (Sigma, St Louis, Mo.), and incubated 30 minutes at room temperature, then added to the protein A plates as described above. For assays in which the pH was varied during antigen incubation with the fusion protein, the fusion protein and α-GalCer were diluted into a 20 mM citrate/phosphate buffer of the specified pH, which contained 0.15 M NaCl, and after incubation, the samples were neutralized by addition of 1M Tris, pH 7.5. Hybridoma cells were added to fusion protein/antigen treated plates at a concentration of 1×10^5 cells/well, in a total volume of 150 μl/well. Assays were performed using 2-6 replicate wells. In some assays, an anti-mCD1d blocking antibody (19G11) was included at a final concentration of 20 μg/ml. The plates were incubated at 37° C. for 16-20 hr, and culture supernatants were withdrawn for analysis. Each experiment was performed at least three times.
(§3) IL-2 secreted in the hybridoma stimulation assays was quantitated in a double antibody sandwich ELISA, by comparison to a standard curve of purified murine IL-2 (Pharmingen, San Diego, Calif.). Hybridoma plate stimulation supernatants (used either neat or diluted) and serially diluted IL-2 standards were added to 96 well ELISA plates coated with a rat anti-mouse IL-2 capture antibody (Pharmingen).

14S.10.C hybridoma = conditions: 14S.10 C diverse TCR hybridoma; plate-bound mCD1d-IgGFc2a fusion protein preincubated with lipid antigen
From the text: as §1, §2
as §3, with “(Pharmingen). […]” for “(Pharmingen).”

14S.15.A hybridoma = conditions: 14S.15.A diverse TCR hybridoma; plate-bound mCD1d-IgGFc2a fusion protein preincubated with lipid antigen
From the text: as §1, §2
as §3, with “(Pharmingen). […]” for “(Pharmingen).”

14S.6.A hybridoma = conditions: 14S.6.A diverse TCR hybridoma; plate-bound mCD1d-IgGFc2a fusion protein preincubated with lipid antigen
From the text: as §1, §2
as §3, with “(Pharmingen). […]” for “(Pharmingen).”

14S.7.N hybridoma = conditions: 14S.7.N diverse TCR hybridoma; plate-bound mCD1d-IgGFc2a fusion protein preincubated with lipid antigen
From the text: as §1, §2
as §3, with “(Pharmingen). […]” for “(Pharmingen).”

24.7.C hybridoma = conditions: 24 7.C NKT hybridoma; plate-bound mCD1d-IgGFc2a fusion protein preincubated with lipid antigen
From the text: as §1, §2
as §3, with “(Pharmingen). […]” for “(Pharmingen).”

24.9.E hybridoma = conditions: for IL-2 secretion: 24.9 E NKT hybridoma, plate-bound mCD1d-IgGFc2a fusion protein preincubated with lipid antigen
From the text: as §1, §2
as §3, with “(Pharmingen). […]” for “(Pharmingen).”

DN32D3 hybridoma = conditions: DN32D3 NKT hybridoma; plate-bound mCD1d-IgGFc2a fusion protein preincubated with lipid antigen
From the text: as §1, §2
as §3, with “(Pharmingen). […]” for “(Pharmingen).”

KT/12 hybridoma = conditions: KT/12 NKT hybridoma; plate-bound mCD1d-IgGFc2a fusion protein preincubated with lipid antigen
From the text: as §1, §2
as §3, with “(Pharmingen). […]” for “(Pharmingen).”

KT/22 hybridoma = conditions: KT/22 NKT hybridoma; plate-bound mCD1d-IgGFc2a fusion protein preincubated with lipid antigen
From the text: as §1, §2
as §3, with “(Pharmingen). […]” for “(Pharmingen).”

KT/23 hybridoma = conditions: KT/23 NKT hybridoma; plate-bound mCD1d-IgGFc2a fusion protein preincubated with lipid antigen
From the text: as §1, §2
as §3, with “(Pharmingen). […]” for “(Pharmingen).”

KT/7 hybridoma = conditions: KT/7 NKT hybridoma; plate-bound mCD1d-IgGFc2a fusion protein preincubated with lipid antigen
From the text: as §1, §2
as §3, with “(Pharmingen). […]” for “(Pharmingen).”

VII68 hybridoma = conditions: VII68 diverse TCR hybridoma; plate-bound mCD1d-IgGFc2a fusion protein preincubated with lipid antigen
From the text: as §1, §2
as §3, with “(Pharmingen). […]” for “(Pharmingen).”

VIII24 hybridoma = conditions: VIII24 diverse TCR hybridoma; plate-bound mCD1d-IgGFc2a fusion protein preincubated with lipid antigen
From the text: as §1, §2
as §3, with “(Pharmingen). […]” for “(Pharmingen).”

Vβ/9 hybridoma = conditions: Vβ/9 NKT hybridoma; plate-bound mCD1d-IgGFc2a fusion protein preincubated with lipid antigen
From the text: as §1, §2
as §3, with “(Pharmingen). […]” for “(Pharmingen).”

XV104 hybridoma = conditions: XV104 diverse TCR hybridoma; plate-bound mCD1d-IgGFc2a fusion protein preincubated with lipid antigen
From the text: as §1, §2
as §3, with “(Pharmingen). […]” for “(Pharmingen).”

XV19 hybridoma = conditions: XV19 diverse TCR hybridoma; plate-bound mCD1d-IgGFc2a fusion protein preincubated with lipid antigen
From the text: as §1, §2
as §3, with “(Pharmingen). […]” for “(Pharmingen).”

Row | Substance | IL-2 secretion (24.8.A hybridoma) | IL-2 secretion (14S.10.C hybridoma) | IL-2 secretion (14S.15.A hybridoma) | IL-2 secretion (14S.6.A hybridoma) | IL-2 secretion (14S.7.N hybridoma) | IL-2 secretion (24.7.C hybridoma) | IL-2 response to mCD1d fusion protein pre-treated with purified or synthetic lipid (24.9.E hybridoma; 24.9.E hybridoma) | IL-2 secretion (24.9.E hybridoma) | IL-2 secretion (DN32D3 hybridoma) | IL-2 secretion (KT/12 hybridoma) | IL-2 secretion (KT/22 hybridoma) | IL-2 secretion (KT/23 hybridoma) | IL-2 secretion (KT/7 hybridoma) | IL-2 secretion (VII68 hybridoma) | IL-2 secretion (VIII24 hybridoma) | IL-2 secretion (Vβ/9 hybridoma) | IL-2 secretion (XV104 hybridoma) | IL-2 secretion (XV19 hybridoma) | IL-2 response to mCD1d fusion protein pre-treated with purified or synthetic lipid (24.8.A hybridoma; 24.8.A hybridoma, compared to untreated or buffer treated fusion protein)
1 | gangliotriosyl ceramide [aGM2] | + (“+” indicates 50-250 pg/ml) | 0 (A “0” indicates a mean of less than 50 pg/ml IL-2 was secreted) | 0 (A “0” indicates a mean of less than 50 pg/ml IL-2 was secreted) | 0 (A “0” indicates a mean of less than 50 pg/ml IL-2 was secreted) | 0 (A “0” indicates a mean of less than 50 pg/ml IL-2 was secreted) | 0 (A “0” indicates a mean of less than 50 pg/ml IL-2 was secreted) | not recognized | 0 (A “0” indicates a mean of less than 50 pg/ml IL-2 was secreted) | 0 (A “0” indicates a mean of less than 50 pg/ml IL-2 was secreted) | 0 (A “0” indicates a mean of less than 50 pg/ml IL-2 was secreted) | 0 (A “0” indicates a mean of less than 50 pg/ml IL-2 was secreted) | 0 (A “0” indicates a mean of less than 50 pg/ml IL-2 was secreted) | 0 (A “0” indicates a mean of less than 50 pg/ml IL-2 was secreted) | 0 (A “0” indicates a mean of less than 50 pg/ml IL-2 was secreted) | 0 (A “0” indicates a mean of less than 50 pg/ml IL-2 was secreted) | 0 (A “0” indicates a mean of less than 50 pg/ml IL-2 was secreted) | 0 (A “0” indicates a mean of less than 50 pg/ml IL-2 was secreted) | 0 (A “0” indicates a mean of less than 50 pg/ml IL-2 was secreted) | –
2 | phosphatidylcholine [PC] | + (“+” indicates 50-250 pg/ml) | 0 (A “0” indicates a mean of less than 50 pg/ml IL-2 was secreted) | 0 (A “0” indicates a mean of less than 50 pg/ml IL-2 was secreted) | 0 (A “0” indicates a mean of less than 50 pg/ml IL-2 was secreted) | 0 (A “0” indicates a mean of less than 50 pg/ml IL-2 was secreted) | 0 (A “0” indicates a mean of less than 50 pg/ml IL-2 was secreted) | – | 0 (A “0” indicates a mean of less than 50 pg/ml IL-2 was secreted) | 0 (A “0” indicates a mean of less than 50 pg/ml IL-2 was secreted) | 0 (A “0” indicates a mean of less than 50 pg/ml IL-2 was secreted) | 0 (A “0” indicates a mean of less than 50 pg/ml IL-2 was secreted) | 0 (A “0” indicates a mean of less than 50 pg/ml IL-2 was secreted) | 0 (A “0” indicates a mean of less than 50 pg/ml IL-2 was secreted) | 0 (A “0” indicates a mean of less than 50 pg/ml IL-2 was secreted) | 0 (A “0” indicates a mean of less than 50 pg/ml IL-2 was secreted) | 0 (A “0” indicates a mean of less than 50 pg/ml IL-2 was secreted) | 0 (A “0” indicates a mean of less than 50 pg/ml IL-2 was secreted) | 0 (A “0” indicates a mean of less than 50 pg/ml IL-2 was secreted) | did not reproducibly significantly enhance reactivity
